The supplement of paper PMC13380429

Tests used:
Conditions in all cases: 72 h
Vero E6 [1] = test: drug sensitivity score (DSS) for viability; higher = more toxic; extreme values may be limits of the assay
U2OS [2] = test: as above
Caco-2 [3] = test: as above
Calu-3 [4] = test: as above
HepG2 [5] = test: as above
Vero E6 [6] = test: cell viability relative to DMSO; higher = less toxic
U2OS [7] = test: as above
Caco-2 [8] = test: as above
Calu-3 [9] = test: as above
HepG2 [10] = test: as above
Vero E6 [11] = test: relative viability EC50 (midpoint between 100% and the lowest measured viability); higher = less toxic
U2OS [12] = test: as above
Caco-2 [13] = test: as above
Calu-3 [14] = test: as above
HepG2 [15] = test: as above

SMILES | drug sensitivity score (Vero E6 [1]) | drug sensitivity score (U2OS [2]) | drug sensitivity score (Caco-2 [3]) | drug sensitivity score (Calu-3 [4]) | drug sensitivity score (HepG2 [5]) | cell viability (Vero E6 [6]; 1 nM) [%] | cell viability (Vero E6 [6]; 10 nM) [%] | cell viability (Vero E6 [6]; 100 nM) [%] | cell viability (Vero E6 [6]; 1000 nM) [%] | cell viability (Vero E6 [6]; 10000 nM) [%] | cell viability (U2OS [7]; 1 nM) [%] | cell viability (U2OS [7]; 10 nM) [%] | cell viability (U2OS [7]; 100 nM) [%] | cell viability (U2OS [7]; 1000 nM) [%] | cell viability (U2OS [7]; 10000 nM) [%] | cell viability (Caco-2 [8]; 1 nM) [%] | cell viability (Caco-2 [8]; 10 nM) [%] | cell viability (Caco-2 [8]; 100 nM) [%] | cell viability (Caco-2 [8]; 1000 nM) [%] | cell viability (Caco-2 [8]; 10000 nM) [%] | cell viability (Calu-3 [9]; 1 nM) [%] | cell viability (Calu-3 [9]; 10 nM) [%] | cell viability (Calu-3 [9]; 100 nM) [%] | cell viability (Calu-3 [9]; 1000 nM) [%] | cell viability (Calu-3 [9]; 10000 nM) [%] | cell viability (HepG2 [10]; 1 nM) [%] | cell viability (HepG2 [10]; 10 nM) [%] | cell viability (HepG2 [10]; 100 nM) [%] | cell viability (HepG2 [10]; 1000 nM) [%] | cell viability (HepG2 [10]; 10000 nM) [%] | relative viability EC50 (Vero E6 [11]) [µM] | relative viability EC50 (U2OS [12]) [µM] | relative viability EC50 (Caco-2 [13]) [µM] | relative viability EC50 (Calu-3 [14]) [µM] | relative viability EC50 (HepG2 [15]) [µM]
Oc1ccc(C(O)CNCCCCCCNCC(O)c2ccc(O)c(O)c2)cc1O (stereo not given) [hexoprenaline] | 0 | 0 | 0 | 0 | 0 | 103 | 109 | 99.2 | 101 | 98.7 | 102 | 97.6 | 95.4 | 102 | 95 | 97.3 | 102 | 93.7 | 95.9 | 88.3 | 95.8 | 97.9 | 99.7 | 97.9 | 100 | 103 | 104 | 110 | 93.2 | 103 | > 10 | > 10 | > 10 | > 10 | > 10
O=[N+]([O-])/N=C1\NCCN1Cc1ccc(Cl)nc1 [imidacloprid] | 0 | 0 | 0 | 0 | 0 | 95.1 | 95.8 | 96.7 | 98 | 96.5 | 97.4 | 95.7 | 103 | 92.3 | 94.4 | 104 | 94.6 | 99.8 | 88.6 | 104 | 103 | 98.5 | 103 | 98.8 | 106 | 98.2 | 109 | 99.7 | 98.9 | 93.1 | > 10 | > 10 | > 10 | > 10 | > 10
CC1(C)C(/C=C/C=C/C=C/C=C2\N(CCCCS(=O)(=O)O)c3ccc4ccccc4c3C2(C)C)=[N+](CCCCS(=O)(=O)[O-])c2ccc3ccccc3c21 [indocyanine-green] | 0 | 0 | 0.4 | 0 | 0 | 96.5 | 99.4 | 102 | 101 | 94.1 | 105 | 101 | 97.4 | 99.1 | 95.4 | 98.2 | 87.1 | 105 | 94.8 | 86.9 | 98.6 | 108 | 91.6 | 96 | 88.3 | 93.1 | 89.4 | 106 | 94.9 | 94.5 | > 10 | > 10 | > 10 | > 10 | > 10
O=C(O[C@H]1[C@H](OC(=O)c2cccnc2)[C@@H](OC(=O)c2cccnc2)[C@H](OC(=O)c2cccnc2)[C@@H](OC(=O)c2cccnc2)[C@H]1OC(=O)c1cccnc1)c1cccnc1 [inositol-hexanicotinate] | 0 | 0 | 0 | 0 | 0 | 105 | 102 | 90.9 | 93.7 | 113 | 92.4 | 90.5 | 99 | 98.5 | 99.4 | 92.2 | 88.9 | 103 | 89.3 | 91.2 | 102 | 93.3 | 100 | 103 | 110 | 90.9 | 112 | 89.1 | 96.5 | 94.6 | > 10 | > 10 | > 10 | > 10 | > 10
Cc1cc(C)n(-c2cccc([C@H](CC(=O)O)CN3CC[C@@H](CCc4ccc5c(n4)NCCC5)C3)c2)n1 [integrin-antagonist-1] | 0 | 0 | 0 | 0 | 0 | 99.2 | 102 | 105 | 95 | 99.1 | 104 | 95.6 | 104 | 103 | 97.2 | 104 | 102 | 94.4 | 99 | 105 | 92.1 | 98 | 101 | 96.6 | 98.4 | 107 | 97.8 | 104 | 97.8 | 99.9 | > 10 | > 10 | > 10 | > 10 | > 10
O=C(Nc1cnn2ccc(N3CCC[C@@H]3c3cc(F)ccc3F)nc12)N1CC[C@H](O)C1 [larotrectinib] | 0 | 0 | 0 | 0 | 0 | 97.9 | 94.3 | 101 | 105 | 93.6 | 97.2 | 105 | 97.9 | 98.1 | 99.6 | 93.9 | 92.8 | 85.3 | 101 | 86 | 96.8 | 106 | 94.9 | 94.7 | 112 | 98.1 | 108 | 103 | 105 | 103 | > 10 | > 10 | > 10 | > 10 | > 10
CCC/C=C1\OC(=O)C2=C1CCC=C2 [ligustilide] | 0 | 0 | 0.1 | 0 | 0 | 93.8 | 101 | 102 | 100 | 106 | 96.2 | 101 | 101 | 95.4 | 94.7 | 100 | 104 | 113 | 122 | 83.6 | 100 | 88.8 | 103 | 101 | 106 | 106 | 106 | 111 | 94.6 | 110 | > 10 | > 10 | > 10 | > 10 | > 10
